From paper PMC5913645, “Methyl phenlactonoates are efficient strigolactone analogs with simple structure” (Journal of Experimental Botany, 2017)
Entries after “also recorded” stand apart in the source; their conditions may differ.

Test system: P. ramosa seeds
Test: P. ramosa seed germination bioassay
Type: in vivo, Phelipanche ramosa
Details: 1.0 μM
Method: Parasitic weed seeds’ (S. hermonthica and P. ramosa) germination activity was studied as described previously ([Jamil et al., 2012]). Six pre-conditioned seed discs were placed in a 90 mm Petri dish containing a filter paper ring wetted with 0.9 ml sterile MilliQ water. Then 50 μl of SL analog solution (10^–5–10^–12 M) was applied on each of the six discs, for each concentration. GR24 solutions with equal concentrations and sterile MilliQ water were included as a positive and negative control, respectively. After application, seeds of S. hermonthica and P. ramosa were incubated in dark at 30 °C for 2 d and at 25 °C for 4 d, respectively. Germination (seeds with radicle emerging through the seed coat) was scored under a binocular microscope, and germination rate (%) was calculated.

COC(=O)/C(=C/OC1C=C(C)C(=O)O1)c1ccc([N+](=O)[O-])cc1 (stereo not shown) [MP1, (E)-methyl 3-(4-methyl-5-oxo-2,5-dihydrofuran-2-yloxy)-2-(4-nitrophenyl)acrylate]
P. ramosa germination activity: much higher activity; also recorded: quite similar to that of GR24
